Data as given in ChEMBL document CHEMBL4602703, “Lead Optimization of a Pyrrole-Based Dihydroorotate Dehydrogenase Inhibitor Series for the Treatment of Malaria” (J Med Chem, 2020).

Assays:
[1] = Inhibition of N-terminal His6-tagged Plasmodium falciparum DHODH expressed in Escherichia coli BL21(DE3) cells using L-DHO as substrate by DCIP dye based assay
[2] = test system: Plasmodium falciparum; assay: microbe, parasite or virus in culture; conditions: 3D7, 72 h
[3] = molecular target: Albumin (Homo sapiens, UniProt P02768); assay: Binding affinity to albumin (unknown origin) by chromatographic method; type: ADME; conditions: albumin, read-out: PB (converted)
[4] = Intrinsic clearance in mouse liver microsomes assessed as per mg protein; type: ADME, Microsome; conditions: microsomes
[5] = molecular target: Dihydroorotate dehydrogenase (quinone), mitochondrial (Homo sapiens, UniProt Q02127)
[6] = physchem; conditions: octanol/water, pH 7.4
[7] = Intrinsic clearance in human liver microsomes assessed as per mg protein; type: ADME, Microsome

Sequence of Dihydroorotate dehydrogenase (quinone), mitochondrial (Q02127 whole entry): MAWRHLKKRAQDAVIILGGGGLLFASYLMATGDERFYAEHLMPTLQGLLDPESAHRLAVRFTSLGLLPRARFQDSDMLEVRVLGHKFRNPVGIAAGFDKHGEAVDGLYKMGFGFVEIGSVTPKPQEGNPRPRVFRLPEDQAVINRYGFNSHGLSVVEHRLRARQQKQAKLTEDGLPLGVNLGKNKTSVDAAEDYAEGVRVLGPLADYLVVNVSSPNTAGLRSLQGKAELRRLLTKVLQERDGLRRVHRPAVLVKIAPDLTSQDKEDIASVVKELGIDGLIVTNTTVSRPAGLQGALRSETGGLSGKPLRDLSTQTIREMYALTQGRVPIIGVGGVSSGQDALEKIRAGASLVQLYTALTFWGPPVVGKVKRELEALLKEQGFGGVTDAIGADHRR
Sequence of Albumin (P02768 whole entry): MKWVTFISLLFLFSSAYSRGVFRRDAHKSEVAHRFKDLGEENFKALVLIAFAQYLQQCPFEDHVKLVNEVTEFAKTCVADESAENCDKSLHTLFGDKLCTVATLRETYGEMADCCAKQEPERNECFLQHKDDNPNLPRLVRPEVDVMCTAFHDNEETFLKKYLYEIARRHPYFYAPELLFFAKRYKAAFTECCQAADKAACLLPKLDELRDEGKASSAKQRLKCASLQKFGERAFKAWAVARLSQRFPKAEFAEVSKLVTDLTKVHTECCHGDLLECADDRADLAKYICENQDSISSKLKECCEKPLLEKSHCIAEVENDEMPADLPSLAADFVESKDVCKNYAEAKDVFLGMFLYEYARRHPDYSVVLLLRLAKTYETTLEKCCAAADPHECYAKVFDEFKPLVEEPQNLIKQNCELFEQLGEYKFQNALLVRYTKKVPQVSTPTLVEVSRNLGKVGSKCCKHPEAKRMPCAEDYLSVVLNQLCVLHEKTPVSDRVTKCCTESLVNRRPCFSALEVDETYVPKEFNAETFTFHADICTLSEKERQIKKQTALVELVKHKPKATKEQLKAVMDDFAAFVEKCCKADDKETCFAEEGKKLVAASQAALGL

`O=C(NC1CC1)c1[nH]cc(Cc2ccc(C(F)(F)F)nc2)c1CO` showed an IC50 [1] of 4300 nM and an EC50 [2] of 1200 nM.

Compound `Cc1c(Cc2ccc(C(F)(F)F)cc2)c[nH]c1C(=O)NC1CC1` has an IC50 [1] of 48 nM, a fraction unbound [3] of 0.029 and a microsomal CLint [4] of 173 µL/min/mg. For the same compound, the IC50 [5] was > 100000 nM, the logD [6] was 3.7 and the EC50 [2] was 18 nM. It also gave a microsomal CLint [7] of 19 µL/min/mg.

For `Cc1[nH]c(C(=O)NC2CCC2)c(C)c1Cc1ccc(C(F)(F)F)nc1`, the IC50 [1] was 42 to 72 nM, the IC50 [5] was > 100000 nM and the EC50 [2] was 66 nM.

For `Cc1c(Cc2ccc(C(F)(F)F)nc2)c[nH]c1C(=O)NC1CC(F)(F)C1`, the IC50 [1] was 3600 nM and the EC50 [2] was 1300 nM.

`Cc1c(Cc2ccc(C(F)(F)F)cc2F)c[nH]c1C(=O)NC1CC1` showed an IC50 [1] of 44 nM, a fraction unbound [3] of 0.03 and a microsomal CLint [4] of 184 µL/min/mg. The IC50 [5] was > 100000 nM, the logD [6] was 3.8 and the EC50 [2] was 16 nM. The microsomal CLint [7] was 15 µL/min/mg.

For `CCOC(=O)c1[nH]c(C)c(Cc2ccc(C(C)C)cc2)c1C`, the IC50 [1] was 570 nM, the IC50 [5] was > 100000 nM and the EC50 [2] was 470 nM.

With `Cc1c(Cc2ccc(C(F)(F)F)nc2)c[nH]c1C(=O)NS(C)(=O)=O` the IC50 [1] was > 100000 nM and the EC50 [2] was > 100000 nM.

`Cc1c(Cc2ccc(C(F)(F)F)nc2)c[nH]c1C(=O)NC1(C(F)(F)F)CC1` showed an IC50 [1] of 9300 nM and an EC50 [2] of 3900 nM.

In the case of `Cc1[nH]c(C(=O)NC2CCOCC2)cc1Cc1ccc(C(F)(F)F)nc1`, the IC50 [1] is reported as > 100000 nM and the EC50 [2] is reported as > 10000 nM.

Compound `Cc1c(Cc2ccc(C(F)(F)F)nc2)c[nH]c1C(=O)NC1CCC1` has an IC50 [1] of 44 nM, a fraction unbound [3] of 0.165 and a microsomal CLint [4] of 204 µL/min/mg. The IC50 [5] was > 100000 nM, the logD [6] was 3.2 and the EC50 [2] was 27 nM. It also gave a microsomal CLint [7] of 29 µL/min/mg.

For `CCOC(=O)c1[nH]c(C)c(Cc2ccc(C(F)(F)F)cn2)c1C`, the IC50 [1] was 300 nM, the IC50 [5] was > 100000 nM and the EC50 [2] was 100 nM.

For `CCOC(=O)c1c(C)c(Cc2ccc(C(F)(F)F)cc2)c(C)n1C`, the IC50 [1] was > 100000 nM.

In the case of `CCCNC(=O)c1[nH]c(C)c(Cc2ccc(C(F)(F)F)cc2)c1C`, the IC50 [1] is reported as 300 nM, the IC50 [5] is reported as > 100000 nM and the EC50 [2] is reported as 110 nM.

`Cc1[nH]c(C(=O)N2CCC2)c(C)c1Cc1ccc(C(F)(F)F)nc1` showed an IC50 [1] of 140 nM, a fraction unbound [3] of 0.228 and a microsomal CLint [4] of 53 µL/min/mg. For the same compound, the logD [6] was 2.9, the EC50 [2] was 130 nM and the microsomal CLint [7] was 31 µL/min/mg.

With `CCOC(=O)c1[nH]c(C)c(C(=O)c2ccc(C(F)(F)F)cn2)c1C` the IC50 [1] was 21000 nM and the EC50 [2] was 6500 nM.

With `Cc1c(Cc2ccc(C(F)(F)F)nc2)c[nH]c1C(=O)NC(C)C` the IC50 [1] was 80 nM, the IC50 [5] was > 100000 nM and the EC50 [2] was 13 nM.

For `Cc1[nH]c(C(=O)N2CCCCC2)cc1Cc1ccc(C(F)(F)F)nc1`, the IC50 [1] was > 100000 nM, the fraction unbound [3] was 0.125 and the microsomal CLint [4] was 93 µL/min/mg. For the same compound, the logD [6] was 3.5, the EC50 [2] was > 20000 nM and the microsomal CLint [7] was 173 µL/min/mg.

In the case of `COc1cc(C(F)(F)F)ccc1Cc1c[nH]c(C(=O)NC2CC2)c1C`, the IC50 [1] is reported as 110 nM, the IC50 [5] is reported as > 100000 nM and the EC50 [2] is reported as 260 nM.

For `Cc1[nH]c(C(=O)NC2CCNCC2)cc1Cc1ccc(C(F)(F)F)nc1`, the IC50 [1] was > 100000 nM and the EC50 [2] was > 10000 nM.

With `Cc1[nH]c(C(=O)N2CCCC2)cc1Cc1ccc(C(F)(F)F)nc1` the IC50 [1] was > 100000 nM, the fraction unbound [3] was 0.185 and the microsomal CLint [4] was 138 µL/min/mg. For the same compound, the logD [6] was 3.2, the EC50 [2] was > 10000 nM and the microsomal CLint [7] was 226 µL/min/mg.

In the case of `Cc1c(Cc2ccc(C(F)(F)F)nc2)c[nH]c1C(=O)N1CC(F)C1`, the IC50 [1] is reported as 120 nM, the microsomal CLint [4] is reported as 145 µL/min/mg and the IC50 [5] is reported as > 100000 nM. The EC50 [2] was 51 nM and the microsomal CLint [7] was 7 µL/min/mg.

Work on `Cc1[nH]c(C(=O)NC(C)C)cc1Cc1ccc(C(F)(F)F)nc1` yielded an IC50 [1] of 2800 nM and an EC50 [2] of 1900 nM.

With `CCOC(=O)c1[nH]cc(Cc2ccc(C(F)(F)F)cc2F)c1C` the IC50 [1] was 35 nM, the IC50 [5] was > 100000 nM and the EC50 [2] was 28 nM.

With `CCCC(=O)c1[nH]cc(Cc2ccc(C(F)(F)F)nc2)c1C` the IC50 [1] was 98 nM, the IC50 [5] was > 100000 nM and the EC50 [2] was 65 nM.

For `Cc1c(Cc2c(F)cc(C(F)(F)F)cc2F)c[nH]c1C(=O)NC1CC1`, the IC50 [1] was 1200 nM and the EC50 [2] was 420 nM.

For `Cc1[nH]c(C(=O)N(C)C)c(C)c1Cc1ccc(C(F)(F)F)nc1`, the IC50 [1] was > 30000 nM and the EC50 [2] was > 10000 nM.

With `CCOC(=O)c1[nH]c(C)c(Cc2cccc(OCC)c2)c1C` the IC50 [1] was 830 nM, the IC50 [5] was > 100000 nM and the EC50 [2] was 530 nM.

With `Cc1c(Cc2ccc(C(F)(F)F)nc2)c[nH]c1C(=O)NC(C)(C)C` the IC50 [1] was 110 nM, the IC50 [5] was > 100000 nM and the EC50 [2] was 51 nM.

With `CCN(CC)C(=O)c1[nH]c(C)c(Cc2ccc(C(F)(F)F)nc2)c1C` the IC50 [1] was 13000 nM and the EC50 [2] was > 10000 nM.

Compound `Cc1c(C(=O)NC2CC2)[nH]c(C(F)(F)F)c1Cc1ccc(C(F)(F)F)nc1` has an IC50 [1] of 1600 nM and an EC50 [2] of 770 nM.

In the case of `Cc1c(Cc2cccnc2)c[nH]c1C(=O)NC1CC1`, the IC50 [1] is reported as > 100000 nM, the fraction unbound [3] is reported as 0.268 and the microsomal CLint [4] is reported as 138 µL/min/mg. For the same compound, the EC50 [2] was > 10000 nM and the microsomal CLint [7] was 19 µL/min/mg.
